Results from ChEMBL document CHEMBL5230106, “The wide-spectrum antimicrobial effect of novel N-alkyl monoquaternary ammonium salts and their mixtures; the QSAR study against bacteria” (Eur J Med Chem, 2020).
Calls of active or inactive are those of the source. The rule behind the calls is not given here.

Key:
Human alphaherpesvirus 3 = assay: Antiviral activity against Varicella zoster-virus assessed as reduction factor at 0.005 % measured for 5 mins by crystal violet staining based microscopic analysis; format: functional
CHO-K1 = assay: Cytotoxicity against CHO-K1 cells assessed as reduction in cell viability incubated for 24 hrs by MTT assay; format: toxicity, cell-based, Cricetulus griseus; conditions: chinese hamster, cho-k1, 24 h
Clostridioides difficile = assay: Antibacterial activity against Clostridium difficile at 0.5 % measured after 8 mins by broth microdilution analysis; format: functional, organism-based
Penicillium chrysogenum = assay: Antifungal activity against Penicillium chrysogenum EXF-1818 assessed as inhibition of fungal growth at 100 uM measured after 72 hrs; format: functional, organism-based
Aspergillus versicolor = assay: Antifungal activity against Aspergillus versicolor EXF-8692 assessed as inhibition of fungal growth at 100 uM measured after 72 hrs; format: functional, organism-based
Aspergillus niger = assay: Antifungal activity against Aspergillus niger EXF-10185 assessed as inhibition of fungal growth at 100 uM measured after 72 hrs; format: functional, organism-based
Fusarium dimerum = assay: Antifungal activity against Fusarium dimerum EXF-8427 assessed as inhibition of fungal growth at 100 uM measured after 72 hrs; format: functional, organism-based

Row | SMILES | fold change (FC) (Human alphaherpesvirus 3) | Activity (CHO-K1) | other results
1 | CCCCCCCC[N+](C)(CCCCCCCC)Cc1ccccc1.[Br-] | 3.84 |  | 
2 | CCCCCCCCCCCCCCCC[n+]1cccc(OC)c1.[Br-] | 4.68 |  | 
3 | CCCCCCCCCCCCCCCC[N+]1(CCO)CCOCC1.[Br-] |  | Toxic | 
4 | CCCCCCCCCCCC[N+](C)(C)CCCCCCCC |  |  | Activity (Clostridioides difficile): Active; Activity (Penicillium chrysogenum): Active; Activity (Aspergillus versicolor): Active; Activity (Aspergillus niger): Active; Activity (Fusarium dimerum): Active
5 | CCCCCCCCCCCCCC[N+]1(CCO)CCOCC1.[Br-] |  | Toxic | 
6 | CCCCCCCCCCCC[N+]1(CCO)CCOCC1.[Br-] |  | Toxic | Activity (Clostridioides difficile): Active
7 | CCCCCCCCCCCCCCCC[N+](C)(C)CCCCCCCC.[Br-] | 3.83 |  | 
